For assay [1], the target named is T1, CDK4 (Homo sapiens, UniProt P11802). Nature of the assay: CDK4 inhibition by Caliper assay. It is filed as biochemical. The settings on record: compound 100 nM. As to the method:
(§1) The experimental steps were as follows:
(§2) Preparation of 1×kinase reaction buffer (50 mM HEPES, PH 7.5; 0.0015% Brij-35) and kinase reaction termination solution (100 mM HEPES, PH 7.5; 0.0015% Brij-35; 0.2% Coating Reagent; 50 mM EDTA) preparation of experimental samples: 100 μL of 5 μM sample solution (dissolved in 100% DMSO) was added to a 96-well plate to obtain a 50×sample solution. As controls, two wells containing only 100 μL of 100% DMSO were set on the same plate. One was served as a control without samples and the other was served as a control without enzymes. 10 μL of sample and 90 μL of 1×kinase reaction buffer were added to a 96-well plate as a transfer plate. The transfer plate was shaken for 10 minutes.
(§3) Preparation of the test plate: taking 5 μL of each of the prepared samples in the 96-well transfer plate into a 384-well plate. Kinase reaction: to 5 μL of 5×compound solution (dissolved in DMSO, diluted 10 times with water) was added 10 μL of 2.5×CDK4/6 kinase solution (kinase was diluted with 1×kinase reaction buffer), which was incubated at room temperature for 10 min, and then 10 μL of 2.5×substrate peptide solution (FAM-labeled peptide and ATP were diluted with 1×kinase reaction buffer) was added. Termination of the kinase reaction: 25 μL of kinase reaction termination solution was added after being reacted at 28° C. for a period of time. The fluorescence (F) was tested on a Caliper and data was collected. The inhibition rate of kinase activity was calculated: the percent inhibition rate of kinase activity=(FDMSO control−Fsample)/(FDMSO control−Fnegative control)×100%, with DMSO as the solution control, and no kinase as the negative control.
Target sequence in this assay (P11802 whole entry, species assumed): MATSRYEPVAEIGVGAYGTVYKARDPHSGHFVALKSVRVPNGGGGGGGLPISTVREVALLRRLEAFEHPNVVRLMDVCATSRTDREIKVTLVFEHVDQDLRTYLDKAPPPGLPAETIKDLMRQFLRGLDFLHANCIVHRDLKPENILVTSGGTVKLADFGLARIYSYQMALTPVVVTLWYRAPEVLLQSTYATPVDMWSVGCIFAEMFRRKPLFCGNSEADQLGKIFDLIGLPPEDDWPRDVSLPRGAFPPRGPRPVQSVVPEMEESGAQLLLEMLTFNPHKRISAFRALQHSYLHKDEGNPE
Target sequence in this assay (P30281 whole entry partner, species assumed): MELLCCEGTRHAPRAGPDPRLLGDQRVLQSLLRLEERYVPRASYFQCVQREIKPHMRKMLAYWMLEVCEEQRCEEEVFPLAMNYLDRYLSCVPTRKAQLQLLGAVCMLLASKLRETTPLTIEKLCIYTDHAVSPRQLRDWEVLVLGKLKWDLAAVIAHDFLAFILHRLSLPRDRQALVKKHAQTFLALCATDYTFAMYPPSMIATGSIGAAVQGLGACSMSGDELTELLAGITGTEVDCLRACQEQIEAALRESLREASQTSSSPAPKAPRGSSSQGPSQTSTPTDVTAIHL

For assay [2], the target named is T2, CDK6 (Homo sapiens, UniProt Q00534). Nature of the assay: CDK6 inhibition by Caliper assay. Type of assay: biochemical. The settings on record: compound 100 nM. As to the method:
as §1, §2, §3
Target sequence in this assay (Q00534 whole entry, species assumed): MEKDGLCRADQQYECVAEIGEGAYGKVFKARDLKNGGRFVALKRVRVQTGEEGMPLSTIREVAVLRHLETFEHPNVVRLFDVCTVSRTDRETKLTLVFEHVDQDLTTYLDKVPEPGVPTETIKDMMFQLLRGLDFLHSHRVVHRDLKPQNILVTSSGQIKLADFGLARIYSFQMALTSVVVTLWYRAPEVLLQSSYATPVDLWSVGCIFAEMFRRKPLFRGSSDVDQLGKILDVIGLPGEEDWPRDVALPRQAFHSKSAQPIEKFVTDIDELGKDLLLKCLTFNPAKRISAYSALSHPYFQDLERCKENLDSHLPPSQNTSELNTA
Target sequence in this assay (P30281 whole entry partner, species assumed): as the sequence (P30281 whole entry partner, species assumed) above

Assay [3] has as its system MCF-7 cells. The assay is described as follows: Inhibition of proliferation of MCF-7 cells by MTT assay. It is filed as cell-based. The settings on record: Homo sapiens, MCF7, 48 hours. As to the method:
The inhibitory effect of the compound on the proliferation of MCF-7 cells (commercially available from ATCC) was determined by the MTT method in vitro. […] Each compound was dissolved in dimethyl sulfoxide (DMSO) to obtain a solution with a concentration of 10 mM, and then diluted to the desired concentration with a phosphate buffer solution. The solution was added to the above 96-well plate. Each concentration has 2 wells with 10 μl per well. Each concentration was tested in duplicate. As a control, DMSO was diluted in the corresponding gradient and then added to the plate. After the 96-well plate was cultured in a 37° C., 5% CO2 cell incubator for 48 hours, 20 μl of MTT solution in 5 mg/ml was added to each well, and it was cultured in the incubator for another 3 to 4 hours. 100 μl of lysate was added to each well and the cells were further incubated overnight in the incubator to fully dissolve the formazan crystals generated. The light absorption value at 492 nm was measured. The relative survival rate of the cells after the compound treatment was calculated based on the light absorption value. The IC50 of the compound against MCF-7 cells was calculated by software.
For orientation: Tetrazolium assays rely on reduction of a dye to a coloured formazan, in cell work by metabolically active cells.

Assay [4] relates to T47D cells. The assay is described as follows: Inhibition of proliferation of T47D cells by CCK8 assay. Type of assay: cell-based. Particulars: Homo sapiens, CCK8, 72 hours. The procedure: The inhibitory effect of the compound on the proliferation of T47D cells (commercially available from ATCC) was determined by the CCK8 method in vitro. The experimental steps were as follows: T47D cells were cultured in 1640 medium of 10% calf serum, seeded in a 96-well plate with 1.5×10^5/ml, and placed in a 37° C., 5% CO2 incubator. Each compound or the positive drug (Ribociclib) was dissolved in dimethyl sulfoxide (DMSO) to obtain a solution with a concentration of 100 mM, and then diluted to the desired concentration with the culture medium. The solutions were then added to the above 96-well plates. Each concentration has 3 wells with 50 μl per well. As a control, DMSO was diluted in the corresponding gradient and then added to the plate. After the 96-well plate was cultured in a 37° C., 5% CO2 cell incubator for 72 hours, 110 μl of CCK8 solution in 9% was added to each well, and it was cultured in the incubator for another 4 hours. The light absorption value at 450 nm was measured. The relative survival rate of the cells after the compound treatment was calculated based on the light absorption value. The IC50 of the compound against T47D cells was calculated by software.

For assay [5], the target named is T1, CDK4. The assay is described as follows: CDK4 protein degradation activity by Western blot in MCF-7 cells. It is filed as cell-based. Set-up: host or cells: MCF-7. Particulars: MCF7, compound 1 μM, 24 hours. The procedure:
(§4) Cell lines: MCF-7 cell lines (human breast cancer cells, available from ATCC) were cultured in MEM medium containing 10% calf serum in a 37° C., 5% CO2, and saturated humidity incubator. DMSO control group and compound intervention group (1 μM) were set. Cells were collected after the treatment for 24 hours, then 100 μL of pre-chilled cell lysate was added and cells were lysed on ice for 30 minutes, total cell protein was extracted, and protein concentration was determined and quantified by bicinchoninic acid method. After routine gelatinization, loading, electrophoresis, then transferring to membrane and blocking, rabbit anti-human CDK4 (1:450) and rabbit anti-human CDK6 (1:150) were added and incubated at 4° C. overnight. The mixture was rinsed and then secondary antibody IgG (1:5000) was added. After the rinsing it was developed by the ECL developing solution, the Bio-Rad gel imaging system was used for scanning and imaging, and the computer software was used for analysis. […] (GAPDH) was used as an internal control. Image J software was used to analyze the gray scale of each band to calculate the degradation rate of the compound to degrade CDK4/6 protein.
Target sequence in this assay (P11802 whole entry): as the sequence (P11802 whole entry, species assumed) above

The target of assay [6] is T2, CDK6. Nature of the assay: CDK6 protein degradation activity by Western blot in MCF-7 cells. Type of assay: cell-based. Also noted: host or cells: MCF-7. Particulars: MCF7, compound 1 μM, 24 hours. As to the method: as §4
Target sequence in this assay (Q00534 whole entry): as the sequence (Q00534 whole entry, species assumed) above

A word on the inhibition: it is the share of the control response that was lost under treatment. A high value points to a response far below the control. As a reminder, the IC50 is the midpoint of a concentration-inhibition curve. The low end stands for greater potency, the high end for weaker potency. Usually Dmax stands for the greatest extent of degradation seen. For `CN(C)C(=O)c1cc2cnc(Nc3ccc(N4CCN(CCCCCC(=O)Nc5cccc6c5C(=O)N(C5CCC(=O)NC5=O)C6=O)CC4)cn3)nc2n1C1CCCC1` (stereo not drawn) [Compound 3], the inhibition at 0.1 µM came out at 97% in assay [1] and 86% in assay [2]. The IC50 turned out to be 0.08 µM in assay [3] and 13.7 µM in assay [4]. The Dmax at 1 µM in assay [5] is more than 90%; in assay [6], 50 to 90%.

These data come from patent publication US11236090B2, “Substituted glutarimides as CDK inhibitors” (SHANGHAI MEIZER PHARMACEUTICALS CO., LTD., priority 2017, dated 2022).
